In paper PMC7555276, “Using Ex Vivo Porcine Jejunum to Identify Membrane Transporter Substrates: A Screening Tool for Early—Stage Drug Development” (Biomedicines, 2020):
Values after ≈ are worked out from the molar mass of the structure shown. Read-outs that look alike come from different tables or passages of the source.

Legend:
Solubility in KBR buffer = assay type: physicochemical; conditions: aqueous buffer, Krebs-bicarbonate ringer buffer pH 7.4
ex vivo porcine jejunum = experiment: Ussing chamber permeation across ex vivo porcine jejunum; assay type: in vitro ADME, pig; conditions: for QPERM (+INH) / QDEP (+INH): presence of the corresponding transporter inhibitor (as E19); for change of Papp,pig in the presence of the corresponding inhibitor / change of QDEP in the presence of the corresponding inhibitor: statistical comparison, α = 0.05, inhibitors as E19; for Papp,pig fold lower than Papp,human: vs reported ex vivo human intestine
From the text: (§1) Fresh jejunum from female, 6 month-old Swiss noble pigs was harvested immediately after slaughter (Abattoir de […], Switzerland and Abattoir de Loëx; Bernex, Switzerland). […] Briefly, the intestine was opened along the mesenteric border and carefully rinsed with ice-cold KBR. […] A six Ussing chamber system was used for the intestinal transport experiments (Physiologic Instruments; San Diego, CA, USA). The Ussing chambers were set up on a heating block connected to a VCC MC6 MultiChannel voltage-current clamp via six input modules, containing integral dummy membranes. A temperature of 38 °C (porcine body temperature) was maintained using a circulating water bath (ED-5, Julabo GmbH, Seelbach, Germany). The Ussing chamber system was set up following the protocol of […] et al. […] In a first step, the acceptor and donor compartments of the Ussing chamber were filled with preheated KBR, and any voltage difference between the electrodes and the electrical resistance due to the buffer solution was eliminated. […] The choice of all substrates and inhibitors was based on the University of California, San Francisco-Food and Drug Administration (UCSF-FDA) TransPortal. The substrates tested, their physicochemical properties and the inhibitors used are described in Table 1. […] The integrity of the intestinal tissue was monitored throughout the experiment by measurement of the transepithelial resistance (TEER). […] At the end of the experiment, samples were taken from the acceptor and the donor compartment. The intestinal tissue was cut into little pieces and extracted for 6 h at room temperature in the mobile phase used for the UHPLC-MS/MS analysis (see Supplementary Information). […] Mass spectrometry was performed in multiple reaction monitoring (MRM) mode. All details of the analytical methods used for each of the molecules tested can be found in the Supplementary Information.

[1] = as above; assay type: in vitro ADME, pig; conditions: female, Swiss noble, pig
From the text: as §1

rat intestine = conditions: absence of inhibitor; cited from earlier work
[2] = parameters: method as in earlier work; conditions: cited from earlier work
P-gp = conditions: substrate of P-gp, cited from earlier work
human intestine = system: human intestine; parameters: method as in PMID 23103351, PMID 21416475; conditions: absence of inhibitor; cited from earlier work
BCRP = conditions: cited from earlier work
MRP2 = conditions: cited from earlier work
PEPT1 = system: PEPT1; parameters: method as in PMID 18824524; conditions: inhibitor of PEPT1; cited from earlier work
OCT1 = conditions: substrate of OCT1; cited from earlier work
[3] = system: porcine intestine (ileum, jejunum); parameters: method as in PMID 30901927; conditions: porcine ileum and jejunum; cited from earlier work
OATP2B1 = conditions: cited from earlier work
[4] = Krebs-bicarbonate ringer (KBR) buffer
[5] = drug in acceptor compartment at t = 2 h, absence of inhibitor
[6] = drug in acceptor compartment at t = 2 h
[7] = drug retained in intestinal membrane at t = 2 h, absence of inhibitor
[8] = drug retained in intestinal membrane at t = 2 h
[9] = pH 7.4, absence of inhibitor, substrate 100 µM (digoxin 50 µM), 38 °C, KBR, read-out: Papp,pig (−INH)
[10] = female, Swiss noble, pig, 2 h, pH 7.4

| solubility (Solubility in KBR buffer; [4]) | QPERM (−INH) (ex vivo porcine jejunum; [5]) | QPERM (+INH) (ex vivo porcine jejunum; [6]) | QDEP (−INH) (ex vivo porcine jejunum; [7]) | QDEP (+INH) (ex vivo porcine jejunum; [8]) | change of Papp,pig in the presence of the corresponding inhibitor (ex vivo porcine jejunum) | Papp at 120 min [1, 9] | Compound | Papp,rat (−INH) (rat intestine) | Papp,human (−INH) (human intestine) | other results |
| --- | --- | --- | --- | --- | --- | --- | --- | --- | --- | --- |
| 45000 ± 1100 µg/mL (≈ 124 mM) | 0.50 ± 0.18 (4) % | 0.31 ± 0.12 (6) % | 1.31 ± 0.40% | 1.47 ± 0.25% | statistically significant decrease | 2.82 ± 0.2 ×10⁻⁶ cm/s | CC1=C(C(=O)O)N2C(=O)[C@@H](NC(=O)[C@H](N)c3ccc(O)cc3)[C@H]2SC1 [Cefadroxil] | 4.99 ± 0.50 [70] 10^−6 cm/s |  | Papp,pig fold lower than Papp,rat (ex vivo porcine jejunum; corresponding segment of the intestine): ~ 1.8 fold; log P [2]: −0.4 |
|  |  |  |  |  | significantly increased |  | C[C@H]1O[C@@H](O[C@H]2[C@@H](O)C[C@H](O[C@H]3[C@@H](O)C[C@H](O[C@H]4CC[C@@]5(C)[C@H](CC[C@@H]6[C@@H]5C[C@@H](O)[C@]5(C)[C@@H](C7=CC(=O)OC7)CC[C@]65O)C4)O[C@@H]3C)O[C@@H]2C)C[C@H](O)[C@@H]1O [Digoxin] | 6.4 ± 1.9 [14] 10^−6 cm/s | 1.44 ± 0.72 [30] 10^−6 cm/s | solubility (Solubility in KBR buffer): 40 ± 10 µg/mL (≈ 0.0512 mM); Km (P-gp; ref 58): 73 µM; Km (P-gp; ref 95): 0.73 µM; QDEP (−INH) (ex vivo porcine jejunum; [10]): 0.62 ± 0.17%; QPERM (−INH) (ex vivo porcine jejunum; [10]): 0.21 ± 0.12 (4) %; Papp at 120 min ([1]; pH 7.4, Papp,pig (−INH)): 0.38 ± 0.23 ×10⁻⁶ cm/s |
|  |  |  |  |  |  |  | CC(C)n1c(/C=C/C(O)CC(O)CC(=O)O)c(-c2ccc(F)cc2)c2ccccc21 (stereo not drawn) [Fluvastatin] |  |  | Ki (BCRP; inhibitor of BCRP): 5.43 µM |
|  |  |  |  |  |  |  | COc1ccc2c(c1)c(CC(=O)O)c(C)n2C(=O)c1ccc(Cl)cc1 [Indomethacin] |  |  | IC50 (MRP2; inhibitor of MRP2): 0.06 µM |
|  |  |  |  |  |  |  | CCCCc1nc(Cl)c(CO)n1Cc1ccc(-c2ccccc2-c2nn[nH]n2)cc1 [Losartan] |  |  | IC50 (PEPT1): 52 µM; Ki (PEPT1): 24 µM |
| 19600 ± 2780 µg/mL (≈ 62.5 mM) | 0.62 ± 0.17 (12) % | 0.21 ± 0.03 (5) % | 1.11 ± 0.46% | 0.43 ± 0.12% | significant decrease | 5.07 ± 0.83 ×10⁻⁶ cm/s | CNC(=C[N+](=O)[O-])NCCSCc1ccc(CN(C)C)o1 [Ranitidine] | 4.00 [72] 10^−6 cm/s | 5.50 [72] 10^−6 cm/s | Km (OCT1): 70 µM; effect of P-gp inhibition on Papp,pig [3]: significant increase of Papp,pig in the ileum, but not in the jejunum; Km (P-gp; ref 93): 270 µM; change of QDEP in the presence of the corresponding inhibitor (ex vivo porcine jejunum): significant decrease |
|  |  |  |  |  |  |  | CN(CCOc1ccc(CC2SC(=O)NC2=O)cc1)c1ccccn1 (stereo not drawn) [Rosiglitazone] |  |  | IC50 (OATP2B1; inhibitor of OATP2B1): 5.2 µM |
| 420 ± 160 µg/mL (≈ 0.872 mM) | 0.17 ± 0.09 (7) % | 0.29 ± 0.16 (6) % | 3.10 ± 1.46% | 1.30 ± 0.14% | significantly increased | 0.91 ± 0.64 ×10⁻⁶ cm/s | CC(C)c1nc(N(C)S(C)(=O)=O)nc(-c2ccc(F)cc2)c1/C=C/[C@@H](O)C[C@@H](O)CC(=O)O [Rosuvastatin] |  | 6.95 ± 1.50 [30] 10^−6 cm/s | change of QDEP in the presence of the corresponding inhibitor (ex vivo porcine jejunum): significantly decreased; Papp,pig fold lower than Papp,human (ex vivo porcine jejunum): ~ 9 fold; log P [2]: 0.13; Km (OATP2B1; substrate of OATP2B1): 2.4 µM |
| 3310 ± 140 µg/mL (≈ 8.31 mM) |  | 0.12 ± 0.07 (9) % | 3.23 ± 0.56% | 2.47 ± 1.24% |  | 0.006 ± 0.004 ×10⁻⁶ cm/s | O=C(O)c1cc(/N=N/c2ccc(S(=O)(=O)Nc3ccccn3)cc2)ccc1O [Sulfasalazine] | 2.76 ± 0.19 [73] 10^−6 cm/s | 0.09 ± 0.06 [30] 10^−6 cm/s | fold increase of Papp,pig in the presence of the inhibitor (ex vivo porcine jejunum; digoxin+verapamil, sulfasalazine+fluvastatin): 100 fold; Papp,pig fold lower than Papp,human (ex vivo porcine jejunum): ~ 10 fold; Km (BCRP; substrate of BCRP): 0.7 µM; log P [2]: 0.4 |
|  | 0.17 ± 0.02 (4) % | 0.24 ± 0.10 (4) % | 0.44 ± 0.02% | 0.57 ± 0.07% | No significant difference | 1.2 ± 0.1 ×10⁻⁶ cm/s | CCCCC(=O)N(Cc1ccc(-c2ccccc2-c2nnn[nH]2)cc1)[C@H](C(=O)O)C(C)C [Valsartan] |  |  | change of QDEP in the presence of the corresponding inhibitor (ex vivo porcine jejunum): significantly higher; Km (MRP2; substrate of MRP2): 30.4 µM |
|  |  |  |  |  |  |  | CN/C(=N/CCSCc1nc[nH]c1C)NC#N [cimetidine] |  |  | effect of P-gp inhibition on Papp,pig [3]: significant increase of Papp,pig in the ileum, but not in the jejunum |
